IC50 data for 21 compounds are collected here from patent US10858365B2, “Triazolo-pyrimidine compounds and uses thereof” (Dizal (Jiangsu) Pharmaceutical Co., Ltd., priority 2018, dated 2020).

Common to all, as to assay type: cell-based
One test deals with hA2b (Homo sapiens (Human), UniProt P29275). In words: cAMP inhibition assay in hA2b/CHO cells. To be noted: adenosine stimulation, read-out: cAMP & FLIPR IC50 (nM) hA2b. How it is done:
(§1) hA2a/CHO, hA2b/CHO and mA2a/CHO (Genscript) were plated at 5×10^3 cells/well into 384-well polystyrene plates at the day of experiment. Compounds were pre-incubated with cells for 30 min at 37° C., 5% CO2. Then […] adenosine was added to the cells and incubated for 30 min at 37° C., 5% CO2. Detection reagent (CISBIO) was added and the plates were incubated for 60 min at room temperature. The signal was captured by Envision.

In a further test the target is mA2a (Mus musculus (Mouse), UniProt Q60613). In words: cAMP inhibition assay in mA2a/CHO cells. To be noted: adenosine stimulation, read-out: cAMP & FLIPR IC50 (nM) mA2a. The protocol:
as §1

The target of another test is hA2a (Homo sapiens (Human), UniProt P29274). In words: cAMP inhibition assay in hA2a/CHO cells. To be noted: adenosine stimulation, read-out: cAMP & FLIPR IC50 (nM) hA2a. How it is done:
as §1
FLIPR™ and cAMP inhibition activities of exemplary compounds in different adenosine receptor over-expressing cell lines are shown in Table 4 below.

The target of the next test is hA1 (Homo sapiens (Human), UniProt P30542). As to the kind of experiment: FLIPR inhibition assay in hADORA1/CHO (hA1 expressing) cells. Conditions: hADORA1/CHO cells, FLIPR calcium, adenosine stimulation; read-out: cAMP & FLIPR IC50 (nM) hA1. The protocol: hADORA1/CHO (hA1 expressing) cells (Genscript) were plated at 1×10^4 cells/well into 384-well polystyrene plates one day before starting the experiment. On the day of experiment, the supernatant was discard and replaced with 40 µL of dye (FLIPR calcium 5 Assay Kit) per well and the plates were incubated for 60 mins at 37° C. plus 5% CO2. Then testing compounds were added at different concentrations for FLIPR™ inhibition assay. After a 400 s incubation with compound, […] adenosine was added into the cells, and the signal was captured by FLIPR.

Structures are written as SMILES.

hA2a, sequence (P29274 whole entry): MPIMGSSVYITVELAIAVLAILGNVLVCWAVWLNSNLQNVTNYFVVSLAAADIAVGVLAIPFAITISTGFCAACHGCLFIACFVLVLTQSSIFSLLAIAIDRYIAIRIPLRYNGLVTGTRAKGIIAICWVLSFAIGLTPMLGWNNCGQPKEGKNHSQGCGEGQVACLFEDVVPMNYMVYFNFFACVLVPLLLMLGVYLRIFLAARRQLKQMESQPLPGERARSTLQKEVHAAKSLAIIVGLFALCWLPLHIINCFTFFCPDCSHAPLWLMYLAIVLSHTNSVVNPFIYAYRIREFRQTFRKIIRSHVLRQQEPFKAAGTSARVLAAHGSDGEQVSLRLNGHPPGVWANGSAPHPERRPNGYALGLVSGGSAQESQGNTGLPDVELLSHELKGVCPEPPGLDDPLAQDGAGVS
hA1, sequence (P30542 whole entry): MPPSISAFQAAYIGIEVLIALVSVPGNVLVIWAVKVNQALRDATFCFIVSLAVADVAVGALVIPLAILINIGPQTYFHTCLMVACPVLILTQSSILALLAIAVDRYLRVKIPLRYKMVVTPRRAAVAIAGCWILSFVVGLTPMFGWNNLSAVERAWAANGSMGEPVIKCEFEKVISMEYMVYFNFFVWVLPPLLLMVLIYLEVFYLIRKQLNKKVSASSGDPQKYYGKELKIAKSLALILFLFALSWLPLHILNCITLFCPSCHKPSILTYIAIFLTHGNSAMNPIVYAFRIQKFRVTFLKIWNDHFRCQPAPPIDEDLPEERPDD
hA2b, sequence (P29275 whole entry): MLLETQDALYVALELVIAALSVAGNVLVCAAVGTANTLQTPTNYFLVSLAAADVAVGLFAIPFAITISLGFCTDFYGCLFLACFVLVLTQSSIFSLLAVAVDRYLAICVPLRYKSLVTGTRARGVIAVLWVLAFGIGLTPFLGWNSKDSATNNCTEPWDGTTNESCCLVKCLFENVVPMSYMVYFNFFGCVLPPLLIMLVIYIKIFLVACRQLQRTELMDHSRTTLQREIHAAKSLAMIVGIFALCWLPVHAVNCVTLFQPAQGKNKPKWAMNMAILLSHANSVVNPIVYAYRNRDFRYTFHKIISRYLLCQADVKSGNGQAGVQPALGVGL
mA2a, sequence (Q60613 whole entry): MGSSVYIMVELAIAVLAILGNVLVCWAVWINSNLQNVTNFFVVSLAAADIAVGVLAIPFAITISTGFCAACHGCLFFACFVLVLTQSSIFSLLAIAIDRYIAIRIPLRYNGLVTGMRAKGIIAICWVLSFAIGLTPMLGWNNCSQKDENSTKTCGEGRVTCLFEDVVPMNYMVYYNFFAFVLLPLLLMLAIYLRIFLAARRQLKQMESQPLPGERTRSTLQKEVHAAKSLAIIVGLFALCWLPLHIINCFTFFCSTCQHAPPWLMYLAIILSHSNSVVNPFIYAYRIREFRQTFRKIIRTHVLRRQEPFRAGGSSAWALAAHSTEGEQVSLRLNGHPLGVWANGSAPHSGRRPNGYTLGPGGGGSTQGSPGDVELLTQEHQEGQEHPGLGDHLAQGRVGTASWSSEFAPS

`Nc1nc(-c2ccc(F)cc2)c(-c2ccc3ncsc3c2)c2nc(Cc3ncccc3F)nn12` [Example 88, 8-(benzo[d]thiazol-6-yl)-7-(4-fluorophenyl)-2-((3-fluoropyridin-2-yl)methyl)-[1,2,4]triazolo[1,5-c]pyrmidin-5-amine]: the IC50 on hA2b was found to be 47 nM; at mA2a, 2.6 nM; at hA2a, 0.7 nM; on hA1, 110 nM.

On to `Cn1cc(-c2c(-c3cc(F)cc(F)c3)nc(N)n3nc(Cc4ncccc4F)nc23)ccc1=O` [Example 76, 5-(5-amino-7-(3,5-difliiorophenyl)-2-((3-fluoropyridin-2-yl)methyl)-[1,2,4]triazolo[1,5-c]pyrimidin-8-yl)-1-methylpyridin-2(1H)-one], for which the concentration for half-maximal inhibition (IC50) on hA2b amounted to 253 nM; on mA2a it was 19 nM; on hA2a, 7.9 nM; at hA1, 8.8 nM.

With `Cc1cnc(-c2nc(N)n3nc(Cc4c(F)cccc4F)nc3c2-c2ccc(=O)n(C)c2)o1` [Example 26, 5-(5-amino-2-(2,6-difluorobenzyl)-7-(5-methyloxazol-2-yl)-[l,2,4]triazolo[l,5-c]pyrimidin-8-yl)-1-methylpyridin-2(1H)-one], the IC50 at hA2b was determined as 457 nM; at mA2a it was 34 nM; at hA2a it was 15 nM; on hA1 it was 33 nM.

Regarding `Cc1nc(Cc2nc3c(-c4ccc5nccn5c4)c(-c4ccc(F)cc4)nc(N)n3n2)cs1` [Example 68, 7-(4-fluorophenyl)-8-[imidazo[1,2-a]pyridin-6-yl]-2-[(2-methyl-1,3-thiazol-4-yl)methyl]-[1,2,4]triazolo[1,5-c]pyrimidin-5-amine], the IC50 on hA2b was determined as 614 nM; on mA2a, 12 nM; at hA2a, 3.2 nM; on hA1, 29 nM.

Regarding `Cc1cnc2ccc(-c3c(-c4ncco4)nc(N)n4nc(CC5CCCO5)nc34)cn12` (single isomer, unassigned) [Example 106-2, 8-(3-methylimidazo[1,2-a]pyridin-6-yl)-7-(oxazol-2-yl)-2-((tetrahydrofuran-2-yl)methyl)-[1,2,4]triazolo[1,5-f]pyrimidin-5-amine], the IC50 at hA2a stood at 0.2 nM; at hA1, 34.9 nM.

As for `Cc1cnc2ccc(-c3c(-c4ncco4)nc(N)n4nc(CC5CCCO5)nc34)cn12` (single isomer, unassigned) [Example 106-1, 8-(3-methylimidazo[1,2-a]pyridin-6-yl)-7-(oxazol-2-yl)-2-((tetrahydrofuran-2-yl)methyl)-[1,2,4]triazolo[1,5-f]pyrimidin-5-amine], the results for the IC50 on hA2a and on hA1 were 0.5 nM and 53.2 nM, respectively.

`CN1CCC[C@@H]1Cc1nc2c(-c3ccc4ncn(C)c4c3)c(-c3ccc(F)cc3)nc(N)n2n1` [Example 104, (R)-7-(4-fluorophenyl)-8-(1-methyl-1H-benzo[d]imidazol-6-yl)-2-((1-methylpyrrolidin-2-yl)methyl)-[1,2,4]triazolo[1,5-c]pyrimidin-5-amine]: the IC50 amounted to 5.7 nM on mA2a, 1 nM at hA2a and 34.1 nM on hA1.

Turning to `Cn1cc(-c2c(-c3ncco3)nc(N)n3nc(Cc4ncccc4OC(F)F)nc23)ccc1=O` [Example 71, 5-(5-amino-2-[[3-(difluoromethoxy)pyridin-2-yl]methyl]-7-(1,3-oxazol-2-yl)-[1,2,4]triazolo[1,5-c]pyrimidin-8-yl)-1-methyl-1,2-dihydropyridin-2-one], the results for the half-maximal inhibitory concentration (IC50) on hA2b, at hA2a and on hA1 were 102 nM, 11 nM and 8.9 nM, respectively.

For `COC1CN(c2nc(N)n3nc(Cc4c(F)cccc4F)nc3c2-c2ccc3ncc(C)n3c2)C1` [Example 109, 2-(2,6-difluorobenzyl)-7-(3-methoxyazetidin-l-yl)-8-(3-methylimidazo[l,2-a]pyridin-6-yl)-[l,2,4] triazolo[1,5-c]pyrimidin-5-amine], the results for the IC50 on hA2a and at hA1 were 3.5 nM and 30.6 nM, respectively.

On to `Cc1cnc2ccc(-c3c(N4CCOC(C)C4)nc(N)n4nc(Cc5ncccc5F)nc34)cn12` (single isomer, unassigned; isomer 2) [Example 112-2, 2-((3-fluoropyridin-2-yl)methyl)-8-(3-methylimidazo[l,2-a]pyridin-6-yl)-7-(2-methylmorpholino)-[1,2,4]triazolo[1,5-c]pyrimidin-5-amine (isomer 2)], for which the values for the IC50 on hA2a and on hA1 were 3.2 nM and 120 nM, respectively.

On to `COc1cc(-c2c(-c3ccc(F)cc3)nc(N)n3nc(Cc4c(F)cccc4F)nc23)ccn1` [Example 5, 2-(2,6-difluorobenzyl)-7-(4-fluorophenyl)-8-(2-methoxypyridin-4-yl)-[1,2,4]lriazolo[1,5-c] pyrimidin-5-amine], for which the half-maximal inhibitory concentration (IC50) at mA2a came to 1.5 nM; at hA2a it was 1.9 nM.

Turning to `Cc1cnc2ccc(-c3c(-c4ccc(F)cc4)nc(N)n4nc(CC5CCOC5)nc34)cn12` (single isomer, unassigned; isomer 2) [Example 105-2, 7-(4-fluorophenyl)-8-(3-methylimidazo[l,2-a]pyridin-6-yl)-2-((tetrahydrofuran-3-yl)methyl)-[1,2, 4]triazolo[1,5-c]pyrimidin-5-amine(isomer 2)], the IC50 stood at 71.6 nM on hA2b and 11.8 nM at hA1.

As to `Cc1cnc2ccc(-c3c(-c4ccc(F)cc4)nc(N)n4nc(C[C@H]5CCCN5C)nc34)cn12` [Example 125, (R)-7-(4-fluorophenyl)-8-(3-methylimidazo[l,2-a]pyrdin-6-yl)-2-((1-methylpyrrolidin-2-yl)methyl)-[l,2,4]triazolo[l,5-c]pyrimidin-5-amine], the IC50 on hA2a is 0.4 nM; on hA1, 34.1 nM.

Consider `COCCc1nc2c(-c3ccc4ncc(C)n4c3)c(-c3ncco3)nc(N)n2n1` [Example 126, 2-(2-methoxyethyl)-8-(3-methylimidazo[l,2-a]pyridin-6-yl)-7-(oxazol-2-yl)-[1,2,4]triazolo[1,5-c]pyrimidin-5-amine], for which the IC50 on hA2a was found to be 1.1 nM; at hA1, 83.6 nM.

As to `Cc1cnc2ccc(-c3c(N4CCOC(C)C4)nc(N)n4nc(Cc5ncccc5F)nc34)cn12` (single isomer, unassigned; isomer 1) [Example 112-1, 2-((3-fluoropyridin-2-yl)methyl)-8-(3-methylimidazo[l,2-a]pyridin-6-yl)-7-(2-methylmorpholino)-[1,2,4]triazolo[1,5-c]pyrimidin-5-amine (isomer 1)], the values for the half-maximal inhibitory concentration (IC50) on hA2a and at hA1 were 91.6 nM and 966 nM, respectively.

For `Cc1cnc2ccc(-c3c(N4CCOC[C@@H]4C)nc(N)n4nc(Cc5ncccc5F)nc34)cn12` (single isomer, unassigned; isomer 1) [Example 113-1, 2-((3-fluoropyridin-2-yl)methyl)-8-(3-methylimidazo[l,2-a]pyridin-6-yl)-7-(3-methylmorpholino)-[1,2,4]triazolo[1,5-c]pyrimidin-5-amine (isomer 1)], the IC50 on hA2a turned out to be 42.4 nM; at hA1 it was 3270 nM.

Regarding `Cc1cnc2ccc(-c3c(N4CCN(C)CC4)nc(N)n4nc(Cc5c(F)cccc5F)nc34)cn12` [Example 108, 2-(2,6-difluorobenzyl)-8-(3-methylimidazo[1,2-a]pyridin-6-yl)-7-{4-methylpiperazin-l-yl)-[1,2,4] triazolo[1,5-c]pyrimidin-5-amine], the IC50 at hA2a is 42.3 nM; at hA1 it was 131 nM.

In the case of `Cc1cnc2ccc(-c3c(N4CCC4)nc(N)n4nc(Cc5ncccc5F)nc34)cn12` [Example 119, 7-(azetidin-l-yl)-2-((3-fluoropyridin-2-yl)methyl)-8-(3-methylimidazo[1,2-a]pyridin-6-yl)-[1,2,4] triazolo[1,5-c]pyrimidin-5-amine], the IC50 on hA2a is 1.9 nM; at hA1, 48.6 nM.

As for `Cc1cnc2ccc(-c3c(N4CCOCC4C)nc(N)n4nc(Cc5ncccc5F)nc34)cn12` (single isomer, unassigned; isomer 2) [Example 113-2, 2-((3-fluoropyridin-2-yl)methyl)-8-(3-methylimidazo[1,2-a]pyridin-6-yl)-7-(3-methylmorpholino)-[1,2,4]triazolo[1,5-c]pyrimidin-5-amine (isomer 2)], the IC50 at hA2a was 73 nM; at hA1, over 10000 nM.

Consider `CN1CCC[C@H]1Cc1nc2c(-c3ccc4ncn(C)c4c3)c(-c3ccc(F)cc3)nc(N)n2n1` [Example 103, (S)-7-(4-fluorophenyl)-8-(1-methyl-1H-benzo[d]imidazol-6-yl)-2-((1-methylpyrrolidin-2-yl)methyl)-[1,2,4]triazolo[1,5-c]pyrimidin-5-amine], for which the IC50 at mA2a turned out to be 30.3 nM; at hA2a, 8.3 nM; at hA1, 264 nM.

Turning to `Cc1cnc2ccc(-c3c(N4CC5(COC5)C4)nc(N)n4nc(Cc5ncccc5F)nc34)cn12` [Example 118, 2-((3-fluoropyridin-2-yl)methyl)-8-(3-methylimidazo[l,2-a]pyridin-6-yl)-7-(2-oxa-6-azaspiro[3.3)heptan-6-yl)-[l,2,4]triazolo[l,5-c]pyrimidin-5-a mine], the IC50 at hA2a was 228 nM; at hA1 it was over 8090 nM.

By IC50 is commonly meant the concentration that inhibits the measured activity by half.
